Data reported in US11760754B2, “Heterocyclic mitochondrial activity inhibitors and uses thereof” (UNIVERSITÉ DE MONTRÉAL, priority 2017, dated 2023).
Where two headings read alike, the source gives them in different places.

Tests used:
OCI-AML3 cells [1] = test system: OCI-AML3 cells
Excerpt: (§1) The following FACS antibodies were used: anti-human CD45 Pacific Blue (BioLegend 304029), CD45 fluorescein isothiocyanate (FITC; BioLegend 304006), CD33 phycoerythrin (PE; BD Bioscience 555450), CD33 BV421 (BD 562854), CD34 […] (APC; BD Bioscience 555824), CD34 APC (Stem Cell Technologies 10613), CD3 FITC (BD Bioscience 555332), CD4 APC-Cy7 (BD 560158), CD8 APC (BD 555369), CD3 PE-Cy5 (BD 555334), CD19 PE-Cy7(BD Bioscience 557835), anti-mouse CD45.1 APC-efluor730 (eBioscience 47-0453-82), ERBB2-PE (Biolegend®, 324406), Annexin V FITC (BD Bioscience®, 556419). Dead cells were stained using Propidium iodide at a final concentration of 1 μg/mL. For ROS quantification cells were stained with 1 μM H2DCFDA (Thermo Fisher, […]) under normal growth conditions. Cells were analyzed on LSRII® flow cytometer (BD Bioscience®), BD Canto® II cytometer (BD Bioscience) or on an IQue Screener (Intellicyt®) and results were analyzed with BD fluorescence-activated cell sorter (FACS) Diva®4.1 and FlowJo®X software.

OCI-AML3 leukemic cells [2] = conditions: 500 nM, 24 h
Excerpt: as §1

Complex I = conditions: OCI-AML3 cells, ubiquinone-dependent vs -independent activity
ETC complex I = conditions: cell free assay
Excerpt: The cell-free kit assay for ETC complex I activity was purchased from MitoSciences (Abcam, Cambridge, UK), and used in accordance with the manufacturer's protocol.

OCI-AML3 cells [3] = test system: OCI-AML3 cells; remark: listed apart in the source
Procedure: LC/MS metabolite measurements were carried out at the McGill Metabolomics platform. Authentic metabolite standards were purchased from Sigma-Aldrich Co., while the following LC/MS grade solvents and additives were purchased from Fisher: ammonium acetate, formic acid, water, methanol, and acetonitrile. OCI-AML3 cells (5 million cells, quadruplicates, treated with either DMSO or Mubritinib 500 nM for 20 h) were washed twice with ice-cold 150 mM ammonium formate pH 7.2. Metabolites were then extracted using 380 μl of LC/MS grade 50% methanol/50% water mixture and 220 μl of cold acetonitrile. Samples were then homogenized by 1.4 mm ceramic bead beating 2 min at 30 Hz (TissueLyser, Qiagen). A volume of 300 μl of ice-cold water and 600 μl of ice-cold methylene chloride were added to the lysates. Samples were vortexed and allowed to rest on ice for 10 min for phase separation followed by centrifugation at 4,000 rpm for 5 min. The upper aqueous layer was transferred to a fresh pre-chilled tube. Samples were eventually dried by vacuum centrifugation operating at −4° C. (Labconco) and stored at −80° C. until ready for LC-MS/MS data collection. For LC-MS/MS analysis, specimens were first re-suspended in 50 μl of water and clarified by centrifugation for 15 min at 15,000 rpm at 1° C. Samples were maintained at 4° C. for the duration of the LC-MS/MS analysis in the autosampler. Specimens were separated by U-HPLC (Ultra-High-Performance Liquid Chromatography) (1290 Infinity, Agilent Technologies) using a Scherzo SM-C18 (3 mm×150 mm) 3 μm column and guard column (Imtakt USA) operating at 10° C.

OCI-AML3 leukemic cells [4] = test system: OCI-AML3 leukemic cells
Procedure: Oxygen consumption rates and extracellular acidification rates were measured using a 96-well Seahorse Bioanalyzer XFe96® or XFe24® according to the manufacturer's instructions (Agilent Technologies). Seahorse XF Base medium was supplemented with 1 mM pyruvate, 2 mM glutamine and 10 mM glucose in the case of Mitochondrial Stress Test and with 1 mM pyruvate, 2 mM glutamine and no glucose in the case of Glycolytic Stress Test. The pH of the Seahorse media was then adjusted at 7.4 prior to assay. In brief, leukemic cells were seeded into Seahorse 96-well (or 24-well) plates pre-coated for 3 h with poly-lysine (Sigma-Aldrich, P4707) at a density of 75,000 cells/well in 100 μL (or 150,000 cells/well, in 150 μL) of temperature/CO2 pre-adjusted Seahorse media per well. The Seahorse plates were then centrifuged at 1400 rpm for 5 min. An additional 75 μL (or 375 μL) of Seahorse media was then added and cells were eventually analyzed following the manufacturer's instructions by adding compounds in a constant volume of 25 μL (or 75 μL). Compounds were acutely injected in cells at a final concentration of 1 μM for Mubritinib, 1 μM for Oligomycin, 0.5 μM for FCCP, 0.5 μM for Rotenone/Antimycin A, Glucose 10 mM and 2-Deoxy-Glucose 50 mM.

[5] = test system: pyruvate dehydrogenase (PDH); conditions: OCI-AML3 cells
OCI-AML5 cells = conditions: 6-day culture, 384-well plates
OCI-AML3 cells [6] = assay: OCI-AML3 cell growth inhibition, dose-response viability assay (CellTiterGlo); format: cell-based; conditions: OCI-AML3 cells
In short: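 OCI-AML3 cells seeded, then exposed to compound in serial dilutions from 10 μM to 0.5 nM, in duplicate or quadruplicate. Viability read by CellTiter-Glo.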

[7] = test system: Normal primitive CD34-positive cord blood cells; assay: cells; conditions: Homo sapiens, CD34-positive cell, read-out: EC50 in normal primitive CD34-positive cord blood cells
AML patient cells = assay: Primary AML patient cell dose-response viability assay (chemical screen); conditions: for EC50: Homo sapiens
[8] = 500 nM, 24 h, relative to DMSO control

## FC(F)(F)c1ccc(/C=C/c2nc(COc3ccc(CCCCn4ccnn4)cc3)co2)cc1 [Mubritinib]
OCI-AML3 cells [1]; 100 nM 24 h, 6 mM NAC pre-incubation 4 hours
  compound-induced apoptosis in the presence of ROS scavenger N-acetyl-cysteine (NAC): significantly decreased
OCI-AML3 cells [1]; 24 hours, 100 nM or 10 μM
  Annexin V staining (marker of apoptosis): increase
OCI-AML3 cells [1]; 27 hours of treatment
  number of dead (PI-positive) cells: increase
OCI-AML3 cells [1]; four days of treatment, dose-dependent
  live cell counts (PI-negative cells): reduction
OCI-AML3 leukemic cells [2]
  level of ROS activity (hydroxyl, peroxyl), DCFDA: increased
Complex I
  nature of inhibitory effect on complex I: NADH-independent (i.e. ubiquinone-dependent)
ETC complex I
  effect on ETC Complex I activity: inhibitory effect
OCI-AML3 cells [3]; [8]
  levels of oxidized glutathione: increased
  levels of reduced glutathione: decreased
OCI-AML3 cells [3]; OCI-AML3 cells
  levels of citric acid cycle intermediates (citrate, alpha-ketoglutarate, succinate, fumarate, malate): reduces
OCI-AML3 leukemic cells [4]; OCI-AML3 cells
  glycolytic switch: induce a glycolytic switch
OCI-AML3 leukemic cells [4]; acute injection, 1 μM
  oxygen consumption rate: impaired
[5]
  effect on pyruvate dehydrogenase (PDH): inhibit pyruvate dehydrogenase (PDH) in an indirect fashion
OCI-AML5 cells
  OCI-AML5 response to compound-induced cell death: resistant
OCI-AML3 cells [6]
  OCI-AML3 cells sensitive to the compound (dose response): sensitive
[7]
  EC50: > 375 nM
AML patient cells; read-out: Median EC50 in the AML population tested
  EC50: ~375 nM
AML patient cells; read-out: median EC50, AML specimens with simultaneous mutations in NPM1, DNMT3A and FLT3-ITD
  EC50: 96 nM
AML patient cells; read-out: median EC50, other AMLs subtypes
  EC50: 423 nM
AML patient cells; dose response validation screening, large cohort
  sensitivity of HOX-high versus HOX-med/low AML cells: significantly more sensitive
AML patient cells; primary screen of 60 compounds
  sensitivity of HOX-high versus HOX-med/low patient cells: significantly more sensitive
